Results taken from publication PMC6318274, “Lattice engineering enables definition of molecular features allowing for potent small-molecule inhibition of HIV-1 entry” (Nature Communications, 2019).
Values joined by “and” are separate entries in the source; they are usually repeats but may differ in a detail not shown here. Equal values may be shown once. Read-outs that look alike come from different tables or passages of the source.

Experiments:
[1] = test system: HIV-1 Env-pseudoviruses (30-strain panel); experiment: Neutralization assay, cross-clade 30-strain panel (Env-pseudoviruses, TZM-bl target cells); assay type: cell-based
Protocol: Neutralization was measured using single-round-of-infection HIV-1 Env-pseudoviruses and TZM-bl target cells (ARP Cat No. #8129)[44],[45]. Compounds were prepared at 400 μM with 4% DMSO (dimethyl sulfoxide) in PBS (phosphate-buffered saline) and diluted 20 times as the starting concentration for serial dilution in the neutralization assays. […] After incubation at 37 °C for 2 days, infection of target cells was measured by luciferase activity. Neutralization curves were fit by nonlinear regression using a five-parameter hill slope equation[45].

[2] = target: BG505 DS-SOSIP.664 Env trimer (Human immunodeficiency virus 1, UniProt Q2N0S5, A430C/A498C/I200C/I556P/T330N/T602C, form not given); assay type: binding, HIV-1; conditions: ITC, 37 °C
HIV-1 strain NL4-3 [3] = conditions: cited from earlier work
SIVmac251.30.SG3 [4] = test system: SIVmac251.30.SG3; set-up: method as in earlier work; conditions: SIVmac251.30.SG3, clade NA; cited from earlier work
SVA.MLV [5] = test system: SVA.MLV; set-up: method as in earlier work; conditions: clade NA; cited from earlier work
HIV-1 strain NL4-3 [6] = experiment: Entry inhibition of laboratory-adapted HIV-1 strain NL4-3; assay type: cell-based; conditions: Human immunodeficiency virus 1, NL43; NL4-3
SIVmac251.30.SG3 [7] = experiment: Neutralization assay, control virus SIVmac251.30.SG3; assay type: cell-based, SIV; conditions: Simian immunodeficiency virus; SIVmac251.30.SG3, clade NA
Protocol: (§1) Neutralization was measured using single-round-of-infection HIV-1 Env-pseudoviruses and TZM-bl target cells (ARP Cat No. #8129)[44],[45]. Compounds were prepared at 400 μM with 4% DMSO (dimethyl sulfoxide) in PBS (phosphate-buffered saline) and diluted 20 times as the starting concentration for serial dilution in the neutralization assays. Pseudoviruses of ten strains from HIV-1 clades A, B, and C were incubated with serial dilutions of drug compounds, then added to TZM-bl target cells which have a luciferase reporter gene. After incubation at 37 °C for 2 days, infection of target cells was measured by luciferase activity. Neutralization curves were fit by nonlinear regression using a five-parameter hill slope equation[45].

SVA.MLV [8] = experiment: Neutralization assay, control virus SVA.MLV; assay type: cell-based; conditions: clade NA
Protocol: as §1

[9] = Human immunodeficiency virus 1, TZM-bl, 242-14 (Clade AG), read-out: IC50
[10] = Human immunodeficiency virus 1, TZM-bl, 247-23 (Clade D), read-out: IC50
[11] = Human immunodeficiency virus 1, TZM-bl, 0330.v4.c3 (Clade A), read-out: IC50
[12] = Human immunodeficiency virus 1, TZM-bl, 426c (Clade C), read-out: IC50
[13] = Human immunodeficiency virus 1, TZM-bl, 7165.18 (Clade B), read-out: IC50
[14] = Human immunodeficiency virus 1, TZM-bl, B41 (Clade B), read-out: IC50
[15] = Human immunodeficiency virus 1, TZM-bl, BJOX028000.10.3 (Clade AE), read-out: IC50
[16] = Human immunodeficiency virus 1, TZM-bl, BL01.DG (Clade B), read-out: IC50
[17] = Human immunodeficiency virus 1, TZM-bl, C4118.09 (Clade AE), read-out: IC50
[18] = Human immunodeficiency virus 1, TZM-bl, CAP210.E8 (Clade C), read-out: IC50
[19] = Human immunodeficiency virus 1, TZM-bl, CH119.10 (Clade BC), read-out: IC50
[20] = Human immunodeficiency virus 1, TZM-bl, CNE10 (Clade B), read-out: IC50
[21] = Human immunodeficiency virus 1, TZM-bl, CNE20 (Clade BC), read-out: IC50
[22] = Human immunodeficiency virus 1, TZM-bl, CNE56 (Clade AE), read-out: IC50
[23] = Human immunodeficiency virus 1, TZM-bl, DJ263.8 (Clade AG), read-out: IC50
[24] = Human immunodeficiency virus 1, TZM-bl, DU156.12 (Clade C), read-out: IC50
[25] = Human immunodeficiency virus 1, TZM-bl, Geomean, 30-strain panel, read-out: Geometric mean IC50
[26] = Human immunodeficiency virus 1, TZM-bl, KER2008.12 (Clade A), read-out: IC50
[27] = Human immunodeficiency virus 1, TZM-bl, MB201.A1 (Clade A), read-out: IC50
[28] = Human immunodeficiency virus 1, TZM-bl, NKU3006.ec1 (Clade D), read-out: IC50
[29] = Human immunodeficiency virus 1, TZM-bl, P0402.c2.11 (Clade G), read-out: IC50
[30] = Human immunodeficiency virus 1, TZM-bl, PVO.04 (Clade B), read-out: IC50
[31] = Human immunodeficiency virus 1, TZM-bl, R3265.c6 (Clade AE), read-out: IC50
[32] = Human immunodeficiency virus 1, TZM-bl, REJO.67 (Clade B), read-out: IC50
[33] = Human immunodeficiency virus 1, TZM-bl, T253-11 (Clade AG), read-out: IC50
[34] = Human immunodeficiency virus 1, TZM-bl, T280-5 (Clade AG), read-out: IC50
[35] = Human immunodeficiency virus 1, TZM-bl, ZM106.9 (Clade C), read-out: IC50

Work on COc1cnc(-n2cnc(C)n2)c2[nH]cc(C(=O)C(=O)N3CCN(C(=O)c4ccccc4)CC3)c12 [BMS-626529] yielded an IC50 ([1]; Geomean, 30-strain panel, read-out: Geometric mean IC50) of roughly 40 nM, an IC50 [1, 9] of 24 nM and an IC50 [1, 10] of 9 nM. For the same molecule, the IC50 [1, 11] was 185 nM, the IC50 [1, 12] was 5 nM and the IC50 [1, 13] was 20 nM. For the same molecule, the IC50 [1, 14] was 0.7 nM, the IC50 [1, 15] was greater than 20000 nM and the IC50 [1, 16] was 12400 nM. For the same molecule, the IC50 [1, 17] was 6210 nM, the IC50 [1, 18] was 66 nM and the IC50 [1, 19] was 5 nM. The IC50 [1, 20] was 2 nM, the IC50 [1, 21] was 878 nM and the IC50 [1, 22] was greater than 20000 nM. The IC50 [1, 23] was 12 nM, the IC50 [1, 24] was 2 nM and the IC50 [1, 25] was greater than 40 nM. The IC50 [1, 26] was 758 nM, the IC50 [1, 27] was 474 nM and the IC50 [1, 28] was 2 nM. For the same molecule, the IC50 [1, 29] was 17 nM, the IC50 [1, 30] was 0.9 nM and the IC50 [1, 31] was 5840 nM. For the same molecule, the IC50 [1, 32] was 205 nM, the IC50 [1, 33] was 0.5 nM and the IC50 [1, 34] was 3 nM. The IC50 [1, 35] was 16 nM, the IC50 ([1]; Human immunodeficiency virus 1, TZM-bl, read-out: IC50) was 5 nM and the “-TΔS” value [2] was “+7.7 kcal/mol”. The ΔG [2] was -9.1 kcal/mol, the ΔH [2] was -16.8 kcal/mol and the EC50 (HIV-1 strain NL4-3 [3]) was 2.2 ± 0.6 nM. The IC50 (SIVmac251.30.SG3 [4]) was greater than 20000 nM and the IC50 (SVA.MLV [5]) was greater than 20000 nM.
In the case of COc1cnc(-c2csc(C(=O)NCCO)n2)c2[nH]cc(C(=O)C(=O)N3CCC(=C(C#N)c4ccccc4)CC3)c12 [BMS-818251], the EC50 (HIV-1 strain NL4-3 [6]) is reported as 0.019 ± 0.003 nM, the IC50 ([1]; Human immunodeficiency virus 1, TZM-bl) is reported as < 0.3 nM and < 0.0002 µg/mL and the IC50 [1, 9] is reported as less than 0.3 nM. It also gave an IC50 ([1]; Human immunodeficiency virus 1, TZM-bl, 242-14.SG3 (Clade AG), read-out: IC50) of less than 0.2 ng/mL, an IC50 [1, 10] of less than 0.3 nM and an IC50 ([1]; Human immunodeficiency virus 1, TZM-bl, 247-23.SG3 (Clade D), read-out: IC50) of less than 0.2 ng/mL. The IC50 [1, 11] was 4 nM, the IC50 ([1]; Human immunodeficiency virus 1, TZM-bl, 0330.v4.c3.SG3 (Clade A), read-out: IC50) was 2.3 ng/mL and the IC50 [1, 12] was 0.4 nM. It also gave an IC50 ([1]; Human immunodeficiency virus 1, TZM-bl, 426c.SG3 (Clade C), read-out: IC50) of less than 0.2 ng/mL, an IC50 [1, 13] of 13 nM and an IC50 ([1]; Human immunodeficiency virus 1, TZM-bl, 7165.18.SG3 (Clade B), read-out: IC50) of 7.4 ng/mL. It also gave an IC50 ([1]; Human immunodeficiency virus 1, TZM-bl, A03349M1.vrc4a.SG3 (Clade D), read-out: IC50) of less than 0.2 ng/mL, an IC50 [1, 14] of less than 0.3 nM and an IC50 ([1]; Human immunodeficiency virus 1, TZM-bl, B41.SG3 (Clade B), read-out: IC50) of less than 0.2 ng/mL. It also gave an IC50 [1, 15] of 733 nM, an IC50 ([1]; Human immunodeficiency virus 1, TZM-bl, BJOX028000.10.3.SG3 (Clade AE), read-out: IC50) of 418 ng/mL and an IC50 [1, 16] of 533 nM. For the same molecule, the IC50 ([1]; Human immunodeficiency virus 1, TZM-bl, BL01.DG.SG3 (Clade B), read-out: IC50) was 304 ng/mL, the IC50 [1, 17] was 89 nM and the IC50 ([1]; Human immunodeficiency virus 1, TZM-bl, C4118.09.SG3 (Clade AE), read-out: IC50) was 50.7 ng/mL. The IC50 [1, 18] was 22 nM, the IC50 ([1]; Human immunodeficiency virus 1, TZM-bl, CAP210.E8.SG3 (Clade C), read-out: IC50) was 12.5 ng/mL and the IC50 [1, 19] was less than 0.3 nM. It also gave an IC50 ([1]; Human immunodeficiency virus 1, TZM-bl, CH119.10.SG3 (Clade BC), read-out: IC50) of less than 0.2 ng/mL, an IC50 [1, 20] of less than 0.3 nM and an IC50 ([1]; Human immunodeficiency virus 1, TZM-bl, CNE10.SG3 (Clade B), read-out: IC50) of less than 0.2 ng/mL. For the same molecule, the IC50 [1, 21] was 6 nM, the IC50 ([1]; Human immunodeficiency virus 1, TZM-bl, CNE20.SG3 (Clade BC), read-out: IC50) was 3.4 ng/mL and the IC50 [1, 22] was 471 nM. It also gave an IC50 ([1]; Human immunodeficiency virus 1, TZM-bl, CNE56.SG3 (Clade AE), read-out: IC50) of 268 ng/mL, an IC50 [1, 23] of less than 0.3 nM and an IC50 ([1]; Human immunodeficiency virus 1, TZM-bl, DJ263.8.SG3 (Clade AG), read-out: IC50) of less than 0.2 ng/mL. For the same molecule, the IC50 [1, 24] was less than 0.3 nM, the IC50 ([1]; Human immunodeficiency virus 1, TZM-bl, DU156.12.SG3 (Clade C), read-out: IC50) was less than 0.2 ng/mL and the IC50 [1, 25] was roughly 2 nM. For the same molecule, the IC50 [1, 26] was 11 nM, the IC50 ([1]; Human immunodeficiency virus 1, TZM-bl, KER2008.12.SG3 (Clade A), read-out: IC50) was 6.3 ng/mL and the IC50 [1, 27] was 14 nM. It also gave an IC50 ([1]; Human immunodeficiency virus 1, TZM-bl, MB201.A1.SG3 (Clade A), read-out: IC50) of 8 ng/mL, an IC50 [1, 28] of less than 0.3 nM and an IC50 ([1]; Human immunodeficiency virus 1, TZM-bl, NKU3006.ec1.SG3 (Clade D), read-out: IC50) of less than 0.2 ng/mL. For the same molecule, the IC50 [1, 29] was less than 0.3 nM, the IC50 ([1]; Human immunodeficiency virus 1, TZM-bl, P0402.c2.11.SG3 (Clade G), read-out: IC50) was less than 0.2 ng/mL and the IC50 [1, 30] was less than 0.3 nM. It also gave an IC50 ([1]; Human immunodeficiency virus 1, TZM-bl, PVO.04.SG3 (Clade B), read-out: IC50) of less than 0.2 ng/mL, an IC50 [1, 31] of 32 nM and an IC50 ([1]; Human immunodeficiency virus 1, TZM-bl, R3265.c6.SG3 (Clade AE), read-out: IC50) of 18.2 ng/mL. For the same molecule, the IC50 [1, 32] was 450 nM, the IC50 ([1]; Human immunodeficiency virus 1, TZM-bl, REJO.67.SG3 (Clade B), read-out: IC50) was 256 ng/mL and the IC50 [1, 33] was less than 0.3 nM. It also gave an IC50 ([1]; Human immunodeficiency virus 1, TZM-bl, T253-11.SG3 (Clade AG), read-out: IC50) of less than 0.2 ng/mL, an IC50 [1, 34] of less than 0.3 nM and an IC50 ([1]; Human immunodeficiency virus 1, TZM-bl, T280-5.SG3 (Clade AG), read-out: IC50) of less than 0.2 ng/mL. The IC50 [1, 35] was 0.5 nM, the IC50 ([1]; Human immunodeficiency virus 1, TZM-bl, ZM106.9.SG3 (Clade C), read-out: IC50) was 0.3 ng/mL and the IC50 ([1]; Human immunodeficiency virus 1, TZM-bl, geomean, 30-strain panel, read-out: Geometric mean IC50) was less than 0.2 ng/mL. The IC50 ([1]; Human immunodeficiency virus 1, TZM-bl, read-out: Geometric mean IC50) was less than 2 nM, the IC50 (SIVmac251.30.SG3 [7]) was greater than 20000 nM and the IC50 (SVA.MLV [8]) was greater than 20000 nM. The “-TΔS” value [2] was “+4.5 kcal/mol”, the ΔG [2] was -10.4 kcal/mol and the ΔH [2] was -14.9 kcal/mol. It also gave a Kd ([2]; read-out: Kd (affinity)) of 47 nM.
